In patent US7902224B2, “Tetrahydro-naphthalene derivatives as glucocorticoid receptor modulators” (Glaxo Group Limited, priority 2004, dated 2011):

Experiments:
glucocorticoid receptor = biological target: T1, glucocorticoid receptor (Homo sapiens, UniProt P04150); test: Glucocorticoid receptor binding assay (fluorescence polarisation competition); conditions: displacement of fluorescent glucocorticoid, 22° C., 2 hours; read-out: pIC50 glucocorticoid receptor binding assay (converted)
T1 construct: purchased Pan Vera (Madison, Wis., USA)
T1 sequence (P04150 1-777): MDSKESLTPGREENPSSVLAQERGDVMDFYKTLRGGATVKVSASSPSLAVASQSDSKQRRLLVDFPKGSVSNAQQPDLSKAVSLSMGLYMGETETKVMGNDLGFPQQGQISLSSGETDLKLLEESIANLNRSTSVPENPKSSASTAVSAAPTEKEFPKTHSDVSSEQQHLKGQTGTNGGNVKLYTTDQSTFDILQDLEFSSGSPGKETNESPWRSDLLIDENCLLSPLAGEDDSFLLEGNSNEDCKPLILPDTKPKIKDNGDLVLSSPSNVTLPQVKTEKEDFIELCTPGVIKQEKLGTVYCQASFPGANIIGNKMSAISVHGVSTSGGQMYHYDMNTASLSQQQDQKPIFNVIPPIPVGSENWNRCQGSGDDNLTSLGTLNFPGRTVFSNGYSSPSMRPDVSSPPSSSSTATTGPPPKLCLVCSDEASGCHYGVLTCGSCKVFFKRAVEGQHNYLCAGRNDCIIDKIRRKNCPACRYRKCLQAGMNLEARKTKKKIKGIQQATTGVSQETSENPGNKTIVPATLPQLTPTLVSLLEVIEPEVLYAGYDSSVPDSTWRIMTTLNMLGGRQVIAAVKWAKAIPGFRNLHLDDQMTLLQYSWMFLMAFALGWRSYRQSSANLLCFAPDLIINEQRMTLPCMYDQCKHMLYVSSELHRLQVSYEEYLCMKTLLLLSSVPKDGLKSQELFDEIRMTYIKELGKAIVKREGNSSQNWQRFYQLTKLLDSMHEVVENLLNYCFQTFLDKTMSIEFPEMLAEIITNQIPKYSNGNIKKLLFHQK
Procedure: Glucocorticoid Receptor Binding Assay
The ability of compounds to bind to the glucocorticoid receptor was determined by assessing their ability to compete with fluorescent-labelled glucocortioid using a kit supplied by Pan Vera (Madison, Wis., USA) or using in house reagents. Compounds were solvated and diluted in DMSO, and transferred directly into assay plates. Fluorescent glucocorticoid and partially purified glucocorticoid receptor with a stabilisation peptide were added to the plates and incubated at 22° C. for 2 hours in the dark. Binding of the compound was assessed by analysing the displacement of fluorescent ligand by measuring the decrease in fluorescence polarisation signal from the mixture.

[1] = test system: MMTV driven gene expression; test: Glucocorticoid mediated transactivation of MMTV driven gene expression (luciferase reporter); assay type: cell-based, Human; conditions: A549 or MG63 cells, 6 hr incubation
Text: Glucocorticoid Mediated Transactivation of MMTV Driven Gene Expression
Human A549 lung epithelial cells or human MG63 osteosarcoma were engineered to contain a renialla luciferase gene under the control of the distal region of the LTR from the mouse mammary tumour virus as previously described (Austin, R. H., Maschera, B., Walker, A., Fairbairn, L., Meldrum, E., Farrow, S. and Uings, I. J. Mometasone furoate is a less specific glucocorticoid than fluticasone propionate. European Respiratory Journal 2002 20 1386-1392).
Compounds were solvated and diluted in DMSO, and transferred directly into assay plates such that the final concentration of DMSO was 0.7%. Following the addition of cells (40K per well), plates were incubated for 6 hr. Luciferase activity was determined using the Firelight kit (Packard, Pangbourne, UK).

NFkB activity = test: Glucocorticoid mediated transrepression of NFkB activity (A549 ELAM promoter alkaline phosphatase reporter, TNFα stimulated); assay type: cell-based; conditions: A549 cells, 3 ng/ml human recombinant TNFα, 16 hours; read-out: pIC50 NFkB assay (converted)
Text: Glucocorticoid mediated Transrepression of NFkB activity.
Human A549 lung epithelial cells were engineered to contain a secreted placental alkaline phosphatase gene under the control of the distal region of the NFkB dependent ELAM promoter as previously described in Ray, K. P., Farrow, S., Daly, M., Talabot, F. and Searle, N. “Induction of the E-selectin promoter by interleukin 1 and tumour necrosis factor alpha, and inhibition by glucocorticoids” Biochemical Journal. 1997 328 707-15.
Compounds were solvated and diluted in DMSO, and transferred directly into assay plates such that the final concentration of DMSO was 0.7%. Following the addition of cells (40K per well), plates were incubated for 1 hr prior to the addition of 3 ng/ml human recombinant TNFα. Following continued incubation for 16 hours, alkaline phosphatase activity was determined by measuring the change in optical density at 405 nm with time following the addition of 0.7 volumes of assay buffer (1 mg/ml p-nitrophenylphosphate dissolved in 1 M diethanolamine, 0.28M NaCl, 0.5 mM MgCl2).

| SMILES | IC50 (glucocorticoid receptor) [µM] | efficacy in the MMTV transactivation assay compared to the NFkB assay [1] | IC50 (NFkB activity) [µM] |
| --- | --- | --- | --- |
| CCC1(CC(O)(CNc2cccc3cnccc23)C(F)(F)F)CCCc2ccccc21 (single isomer, unassigned) [Example 4-D1, 3-(1-Ethyl-1,2,3,4-tetrahydro-1-naphthalenyl)-1,1,1-trifluoro-2-[(5-isoquinolinylamino)methyl]-2-propanol] | < 0.1 | reduced efficacy |  |
| CC1(CC(O)(CNc2cccc3ncccc23)C(F)(F)F)CCCc2ccccc21 (single isomer, unassigned) [Example 1-D1E1, 1,1,1-Trifluoro-3-(1-methyl-1,2,3,4-tetrahydro-1-naphthalenyl)-2-[(5-guinolinylamino)methyl]-2-propanol] | < 0.1 | reduced efficacy | < 0.0316 |
| Cc1ccc2c(NCC(O)(CC3(C)CCCc4ccccc43)C(F)(F)F)cccc2n1 (single isomer, unassigned) [Example 2-D1, 1,1,1-Trifluoro-3-[(2-methyl-5-quinolinyl)amino]-2-[(1-methyl-1,2,3,4-tetrahydro-1-naphthalenyl)methyl]-2-propanol] | < 0.1 | reduced efficacy | < 0.0316 |
| Cc1ccc2c(NCC(O)(CC3(C)CCCc4ccccc43)C(F)(F)F)cccc2n1 (single isomer, unassigned) [Example 2-D2E2, 1,1,1-Trifluoro-3-[(2-methyl-5-quinolinyl)amino]-2-[(1-methyl-1,2,3,4-tetrahydro-1-naphthalenyl)methyl]-2-propanol] |  | reduced efficacy |  |
| CCC1(CC(O)(CNc2cccc3nc(C)ccc23)C(F)(F)F)CCCc2ccccc21 (single isomer, unassigned) [Example 5-D1, 3-(1-Ethyl-1,2,3,4-tetrahydro-1-naphthalenyl)-1,1,1-trifluoro-2-[[(2-methyl-5-quinolinyl)amino]methyl]-2-propanol] | < 0.1 | reduced efficacy | < 0.0316 |
| CC1(CC(O)(CNc2cccc3cnccc23)C(F)(F)F)CCCc2ccccc21 (single isomer, unassigned) [Example 3-D2E1, 1,1,1-Trifluoro-3-(5-isoguinolinylamino)-2-[(1-methyl-1,2,3,4-tetrahydro-1-naphthalenyl)methyl]-2-propanol] | < 0.1 | reduced efficacy |  |
| CC1(CC(O)(CNc2cccc3ncccc23)C(F)(F)F)CCCc2ccccc21 (stereo not shown) [Example 1-D1, 1,1,1-Trifluoro-3-(1-methyl-1,2,3,4-tetrahydro-1-naphthalenyl)-2-[(5-guinolinylamino)methyl]-2-propanol] | < 0.1 | reduced efficacy | < 0.0316 |
| Cc1ccc2c(NCC(O)(CC3(C)CCCc4ccccc43)C(F)(F)F)cccc2n1 (single isomer, unassigned) [Example 2-D2, 1,1,1-Trifluoro-3-[(2-methyl-5-quinolinyl)amino]-2-[(1-methyl-1,2,3,4-tetrahydro-1-naphthalenyl)methyl]-2-propanol] |  | reduced efficacy |  |
| Cc1ccc2c(NCC(O)(CC3(C)CCCc4ccccc43)C(F)(F)F)cccc2n1 (single isomer, unassigned) [Example 2-D2E1, 1,1,1-Trifluoro-3-[(2-methyl-5-quinolinyl)amino]-2-[(1-methyl-1,2,3,4-tetrahydro-1-naphthalenyl)methyl]-2-propanol] |  | reduced efficacy |  |
| CCC1(CC(O)(CNc2cccc3cnccc23)C(F)(F)F)CCCc2ccccc21 (single isomer, unassigned) [Example 4-D1E2, 3-(1-Ethyl-1,2,3,4-tetrahydro-1-naphthalenyl)-1,1,1-trifluoro-2-[(5-isoquinolinylamino)methyl]-2-propanol] |  | reduced efficacy | < 0.0316 |
| CCC1(CC(O)(CNc2cccc3nc(C)ccc23)C(F)(F)F)CCCc2ccccc21 (single isomer, unassigned) [Example 5-D1E1, 3-(1-Ethyl-1,2,3,4-tetrahydro-1-naphthalenyl)-1,1,1-trifluoro-2-[[(2-methyl-5-quinolinyl)amino]methyl]-2-propanol] |  | reduced efficacy |  |
| Cc1ccc2c(NCC(O)(CC3(C)CCCc4ccccc43)C(F)(F)F)cccc2n1 (single isomer, unassigned) [Example 2-D1E1, 1,1,1-Trifluoro-3-[(2-methyl-5-quinolinyl)amino]-2-[(1-methyl-1,2,3,4-tetrahydro-1-naphthalenyl)methyl]-2-propanol] |  | reduced efficacy |  |
| CC1(CC(O)(CNc2cccc3cnccc23)C(F)(F)F)CCCc2ccccc21 (single isomer, unassigned) [Example 3-D1E2, 1,1,1-Trifluoro-3-(5-isoguinolinylamino)-2-[(1-methyl-1,2,3,4-tetrahydro-1-naphthalenyl)methyl]-2-propanol] |  | reduced efficacy | < 0.0316 |
| CCC1(CC(O)(CNc2cccc3nc(C)ccc23)C(F)(F)F)CCCc2ccccc21 (single isomer, unassigned) [Example 5-D2E1, 3-(1-Ethyl-1,2,3,4-tetrahydro-1-naphthalenyl)-1,1,1-trifluoro-2-[[(2-methyl-5-quinolinyl)amino]methyl]-2-propanol] |  | reduced efficacy |  |
| CCC1(CC(O)(CNc2cccc3ncccc23)C(F)(F)F)CCCc2ccccc21 (stereo not shown) [Example 6-D1, 3-(1-Ethyl-1,2,3,4-tetrahydro-1-naphthalenyl)-1,1,1-trifluoro-2-[(5-guinolinylamino)methyl]-2-propanol] | < 0.1 | reduced efficacy | < 0.0316 |
| CC1(CC(O)(CNc2cccc3cnccc23)C(F)(F)F)CCCc2ccccc21 (stereo not shown) [Example 3-D1, 1,1,1-Trifluoro-3-(5-isoguinolinylamino)-2-[(1-methyl-1,2,3,4-tetrahydro-1-naphthalenyl)methyl]-2-propanol] | < 0.1 | reduced efficacy | < 0.0316 |
| CCC1(CC(O)(CNc2cccc3nc(C)ccc23)C(F)(F)F)CCCc2ccccc21 (single isomer, unassigned) [Example 5-D2, 3-(1-Ethyl-1,2,3,4-tetrahydro-1-naphthalenyl)-1,1,1-trifluoro-2-[[(2-methyl-5-quinolinyl)amino]methyl]-2-propanol] |  | reduced efficacy |  |
| CC1(CC(O)(CNc2cccc3cnccc23)C(F)(F)F)CCCc2ccccc21 (stereo not shown) [Example 3-D2, 1,1,1-Trifluoro-3-(5-isoguinolinylamino)-2-[(1-methyl-1,2,3,4-tetrahydro-1-naphthalenyl)methyl]-2-propanol] |  | reduced efficacy |  |
